Data on ten molecules can be found in US11207312B2, “Metallo-beta-lactamase inhibitors and methods of use thereof” (priority 2017, dated 2021).

The subject of series [1] is P. aeruginosa MB9798 (efflux+, IMP-1 plasmid). To be noted: for MB9798 MITC95 P. aeruginosa uM Efflux WT: efflux + (MB9798) strain, imipenem at 2 μg/mL, in the presence of a class A, C, D serine β-lactamase inhibitor closely related to relebactam; for Efflux ratio: fold difference between efflux+ (MB9798) and efflux− (MB9799) strains. The gist of the method: (§1)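 PAO1-derived isogenic pair (oprD+, inducible AmpC), efflux+ MB5919 or efflux− MB5890 parent, carrying an electroporated IMP-1 plasmid from a clinical isolate. Microbroth MIC with fixed imipenem and/or ceftazidime (usually CLSI breakpoint) plus fixed class A/C inhibitor; MBL inhibitor serially titrated, concentration restoring susceptibility recorded.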

A further series concerns the target NDM-1 (Klebsiella pneumoniae, UniProt C7C422). As to the kind of experiment: biochemical. In kind it is biochemical. To be noted: CCF2-FA fluorescence assay, 2 hours at 25° C. The gist of the method:
(§2)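 Each enzyme (final 1 pM NDM-1, 2 pM IMP-1, 30 pM VIM-1) was incubated with test inhibitor (20 μM to 0.00063 μM) and 1.25 μM CCF2-FA for 2 hours at 25° C in zinc-supplemented phosphate buffer, pH 7. Fluorescence at 460 nm was then read and IC50 fitted with four parameters.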

In another series the target is VIM-2 (Escherichia coli, UniProt Q5U7L7). As to the kind of experiment: biochemical. To be noted: CCF2-FA fluorescence assay; read-out: VIM2 IC50.
The subject of series [2] is P. aeruginosa MB9799 (efflux-, IMP-1 plasmid). In kind it is cell-based, Pseudomonas aeruginosa. Particulars: efflux − (MB9799) strain; imipenem at 2 μg/mL; in the presence of a class A, C, D serine β-lactamase inhibitor closely related to relebactam. The gist of the method: as §1
The next series deals with IMP-1 (Serratia marcescens, UniProt P52699). The series is described as follows: biochemical. To be noted: CCF2-FA fluorescence assay, 2 hours at 25° C.; read-out: IMP1 IC50. The gist of the method: as §2
The target in another series is VIM-1 (Pseudomonas aeruginosa (strain ATCC 15692 / DSM 22644 / CIP 104116 / JCM 14847 / LMG 12228 / 1C / PRS 101 / PAO1), UniProt A0A0F7KYQ8). As to the kind of experiment: biochemical. Particulars: CCF2-FA fluorescence assay, 2 hours at 25° C.; read-out: VIM1 IC50. The gist of the method: as §2
The test system of series [3] is Escherichia coli expressing NDM-1 (CLB30016). Format: cell-based. To be noted: with imipenem 1 μg/ml; 95% inhibition of bacterial growth. The gist of the method: (§3)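 Imipenem 1 μg/ml + inhibitor titration in cation-adjusted MHB (1.1× stock medium); overnight-cultured colonies suspended in saline, diluted 1:100. 35 °C, 22–24 h; absorbance read. MITC95 = lowest compound conc giving 95% growth inhibition.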

Series [4] has as its system Serratia marcescens expressing IMP-1 (CL5741). Format: cell-based. Particulars: with imipenem 1 μg/ml; 95% inhibition of bacterial growth. The gist of the method: as §3
The test system of series [5] is Klebsiella pneumoniae expressing VIM-1 (IHMA599644). Format: cell-based. To be noted: with imipenem 1 μg/ml; 95% inhibition of bacterial growth. The gist of the method: as §3

In general, IC50 refers to the concentration needed to halve the response being measured.

Sequence of IMP-1 (P52699 whole entry, looked up, species assumed): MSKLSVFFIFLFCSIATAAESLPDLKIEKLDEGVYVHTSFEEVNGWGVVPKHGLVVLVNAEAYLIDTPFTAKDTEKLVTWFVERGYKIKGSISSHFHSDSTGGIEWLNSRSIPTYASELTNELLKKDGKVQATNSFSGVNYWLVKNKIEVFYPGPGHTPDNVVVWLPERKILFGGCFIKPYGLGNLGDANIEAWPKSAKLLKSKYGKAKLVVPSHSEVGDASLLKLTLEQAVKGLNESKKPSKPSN
Sequence of NDM-1 (C7C422 whole entry, looked up, species assumed): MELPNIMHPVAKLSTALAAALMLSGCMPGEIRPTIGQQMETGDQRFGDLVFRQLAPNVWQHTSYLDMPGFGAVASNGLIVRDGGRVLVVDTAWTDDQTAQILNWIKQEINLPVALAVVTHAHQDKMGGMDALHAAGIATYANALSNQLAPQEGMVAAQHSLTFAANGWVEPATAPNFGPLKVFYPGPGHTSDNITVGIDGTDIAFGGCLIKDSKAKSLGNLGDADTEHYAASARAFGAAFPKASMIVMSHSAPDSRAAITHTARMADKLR

For the molecule `NC[C@@H](O)CNS(=O)(=O)c1ccc(N2CCNC(CO)C2)c(-c2nn[nH]n2)c1S(N)(=O)=O` (stereo partly drawn) [Example 122, N1-((R)-3-amino-2-hydroxypropyl)-4-(3-(hydroxymethyl)piperazin-1-yl)-3-(2H-tetrazol-5-yl)benzene-1,2-disulfonamide], in series [1], the “MB9798 MITC95 P. aeruginosa uM Efflux WT” value was 1.56 µM. For the same molecule, the Efflux ratio in [1] was determined as 2.00. Besides, the IC50 on NDM-1 was 14.3 nM; at VIM-2 it was 6.86 nM; at IMP-1, 24.4 nM; on VIM-1, 3.34 nM. The “MB9799 MITC95 P. aeruginosa uM Efflux Mutant” value in [2] amounted to 0.78 µM. Further, in series [3], the “CLB30016 E. coli MITC95 NDM” value came to 0.20 µM. In [4], the “CL5741 S. marcescens MITC95 IMP” value was determined as 0.39 µM. The “IHMA599644 K. pneumoniae MITC95 VIM” value in series [5] worked out at 0.78 µM.

With `NS(=O)(=O)c1c(S(=O)(=O)N[C@@H]2CCNC2)ccc(N2CCC(O)CC2)c1-c1nnn[nH]1` [Example 63, 4-(4-hydroxypiperidin-1-yl)-N1-[(3R)-pyrrolidin-3-yl]-3-(1H-tetrazol-5-yl)benzene-1,2-disulfonamide], the “MB9798 MITC95 P. aeruginosa uM Efflux WT” value in [1] turned out to be 1.56 µM. Besides, in [1], the Efflux ratio worked out at 1.00. Further, the IC50 at NDM-1 was 0.31 nM; on VIM-2, 0.66 nM; on IMP-1, 0.47 nM; at VIM-1, 0.16 nM. The “MB9799 MITC95 P. aeruginosa uM Efflux Mutant” value in [2] came out at 1.56 µM. In addition, the “CLB30016 E. coli MITC95 NDM” value in series [3] was 3.13 µM. The “CL5741 S. marcescens MITC95 IMP” value in [4] was determined as 3.13 µM. Moreover, in series [5], the “IHMA599644 K. pneumoniae MITC95 VIM” value stood at 6.25 µM.

`NS(=O)(=O)c1c(S(=O)(=O)N[C@@H]2CCNC2)ccc(NCCN2CCNCC2)c1-c1nnn[nH]1` [Example 75, 4-[(2-piperazin-1-ylethyl)amino]-N1-[(3R)-pyrrolidin-3-yl]-3-(1H-tetrazol-5-yl)benzene-1,2-disulfonamide]: the “MB9798 MITC95 P. aeruginosa uM Efflux WT” value in series [1] was 25.00 µM. Besides, the Efflux ratio in series [1] turned out to be 8.00. In addition, the IC50 on NDM-1 is 162 nM; at VIM-2 it was 200 nM; at IMP-1, 178 nM; at VIM-1, 6.75 nM. For the same molecule, the “MB9799 MITC95 P. aeruginosa uM Efflux Mutant” value in series [2] is 3.13 µM. For the same molecule, the “CLB30016 E. coli MITC95 NDM” value in series [3] is 6.25 µM. The “CL5741 S. marcescens MITC95 IMP” value in series [4] came out at 12.50 µM. Moreover, the “IHMA599644 K. pneumoniae MITC95 VIM” value in series [5] came to 3.13 µM.

With `NS(=O)(=O)c1c(S(=O)(=O)N[C@@H]2CCNC2)ccc(N2CCC(CF)CC2)c1-c1nnn[nH]1` [Example 89, 4-[4-(fluoromethyl)piperidin-1-yl]-N1-[(3R)-pyrrolidin-3-yl]-3-(1H-tetrazol-5-yl)benzene-1,2-disulfonamide], the “MB9798 MITC95 P. aeruginosa uM Efflux WT” value in series [1] was 3.13 µM. The Efflux ratio in series [1] came to 2.00. Besides, the IC50 against NDM-1 turned out to be 0.21 nM; on VIM-2, 0.66 nM; on IMP-1, 0.61 nM; on VIM-1 it was 0.21 nM. The “MB9799 MITC95 P. aeruginosa uM Efflux Mutant” value in series [2] turned out to be 1.56 µM. For the same molecule, the “CLB30016 E. coli MITC95 NDM” value in [3] amounted to 1.56 µM. Moreover, the “CL5741 S. marcescens MITC95 IMP” value in [4] was 3.13 µM. Moreover, the “IHMA599644 K. pneumoniae MITC95 VIM” value in series [5] is 12.50 µM.

As for `NC[C@H](N)CNS(=O)(=O)c1ccc(N2CCC(c3c[nH]cn3)CC2)c(-c2nn[nH]n2)c1S(N)(=O)=O` [Example 168, (S)-4-(4-(1H-imidazol-4-yl)piperidin-1-yl)-N1-(2,3-diaminopropyl)-3-(2H-tetrazol-5-yl)benzene-1,2-disulfonamide], the “MB9798 MITC95 P. aeruginosa uM Efflux WT” value in series [1] stood at 1.56 µM. Besides, the Efflux ratio in series [1] is given as 2.00. Also, the IC50 against NDM-1 is 0.17 nM; on VIM-2 it was 0.48 nM; on IMP-1 it was 0.24 nM; on VIM-1, 0.07 nM. Also, the “MB9799 MITC95 P. aeruginosa uM Efflux Mutant” value in series [2] turned out to be 0.78 µM. In series [3], the “CLB30016 E. coli MITC95 NDM” value turned out to be 0.39 µM. Moreover, the “CL5741 S. marcescens MITC95 IMP” value in series [4] was 0.78 µM. Also, in [5], the “IHMA599644 K. pneumoniae MITC95 VIM” value stood at 1.56 µM.

As for `NS(=O)(=O)c1c(S(=O)(=O)N[C@@H]2CCNC2)ccc(N2CCCN(CCO)CC2)c1-c1nnn[nH]1` [Example 69, 4-[4-(2-hydroxyethyl)-1,4-diazepan-1-yl]-N1-[(3R)-pyrrolidin-3-yl]-3-(1H-tetrazol-5-yl)benzene-1,2-disulfonamide], in series [1], the “MB9798 MITC95 P. aeruginosa uM Efflux WT” value was 12.50 µM. In addition, in series [1], the Efflux ratio is 4.00. Moreover, the IC50 against NDM-1 turned out to be 16.2 nM; at VIM-2, 13.3 nM; at IMP-1 it was 29.6 nM; on VIM-1 it was 1.6 nM. Moreover, the “MB9799 MITC95 P. aeruginosa uM Efflux Mutant” value in [2] was 3.13 µM. Also, in series [3], the “CLB30016 E. coli MITC95 NDM” value was determined as 0.78 µM. The “CL5741 S. marcescens MITC95 IMP” value in series [4] was determined as 3.13 µM. Further, the “IHMA599644 K. pneumoniae MITC95 VIM” value in series [5] is 1.56 µM.

As for `NCCNS(=O)(=O)C1CCN(c2ccc(S(=O)(=O)NC[C@H](O)CN)c(S(N)(=O)=O)c2-c2nn[nH]n2)CC1` [Example 190, (R)—N1-(3-amino-2-hydroxypropyl)-4-(4-(N-(2-aminoethyl)sulfamoyl)piperidin-1-yl)-3-(2H-tetrazol-5-yl)benzene-1,2-disulfonamide], in series [1], the “MB9798 MITC95 P. aeruginosa uM Efflux WT” value turned out to be 0.78 µM. The Efflux ratio in series [1] is recorded as 1.00. Besides, the IC50 is 0.67 nM against NDM-1, 0.85 nM on VIM-2, 0.61 nM on IMP-1 and 0.09 nM on VIM-1. For the same molecule, the “MB9799 MITC95 P. aeruginosa uM Efflux Mutant” value in series [2] amounted to 0.78 µM. The “CLB30016 E. coli MITC95 NDM” value in [3] was 3.13 µM. In addition, the “CL5741 S. marcescens MITC95 IMP” value in series [4] is 0.78 µM. Besides, the “IHMA599644 K. pneumoniae MITC95 VIM” value in series [5] is 1.56 µM.

Consider `NS(=O)(=O)c1c(S(=O)(=O)C2CNC2)ccc(N2CCC(CO)CC2)c1-c1nnn[nH]1` [Example 58, 6-(azetidin-3-ylsulfonyl)-3-[4-(hydroxymethyl)piperidin-1-yl]-2-(1H-tetrazol-5-yl)benzenesulfonamide], for which the “MB9798 MITC95 P. aeruginosa uM Efflux WT” value in series [1] was found to be 6.25 µM. In addition, in [1], the Efflux ratio was 4.00. The IC50 against NDM-1 is 1.03 nM; at VIM-2, 1.67 nM; on IMP-1 it was 0.85 nM; on VIM-1, 0.42 nM. Moreover, the “MB9799 MITC95 P. aeruginosa uM Efflux Mutant” value in series [2] turned out to be 1.56 µM. For the same molecule, the “CLB30016 E. coli MITC95 NDM” value in series [3] is 3.13 µM. Further, the “CL5741 S. marcescens MITC95 IMP” value in [4] is 6.25 µM. Further, the “IHMA599644 K. pneumoniae MITC95 VIM” value in series [5] stood at 6.25 µM.

Regarding `NC[C@@H](O)CNS(=O)(=O)c1ccc(N[C@H]2CCC[C@H]2N)c(-c2nn[nH]n2)c1S(N)(=O)=O` [Example 178, N1-((R)-3-amino-2-hydroxypropyl)-4-(((1S,2R)-2-aminocyclopentyl)amino)-3-(2H-tetrazol-5-yl)benzene-1,2-disulfonamide], in series [1], the “MB9798 MITC95 P. aeruginosa uM Efflux WT” value worked out at 25.00 µM. Also, the Efflux ratio in series [1] amounted to 4.00. The IC50 was found to be 29 nM against NDM-1, 132 nM on VIM-2, 101 nM on IMP-1 and 80.1 nM at VIM-1. Moreover, the “MB9799 MITC95 P. aeruginosa uM Efflux Mutant” value in series [2] was 6.25 µM. Besides, the “CLB30016 E. coli MITC95 NDM” value in series [3] is 1.56 µM. For the same molecule, the “CL5741 S. marcescens MITC95 IMP” value in series [4] was determined as 6.25 µM. Also, the “IHMA599644 K. pneumoniae MITC95 VIM” value in [5] stood at 6.25 µM.

For the molecule `NS(=O)(=O)c1c(S(=O)(=O)N[C@@H]2CCNC2)ccc(N2CCCC(C(=O)NCCCO)C2)c1-c1nnn[nH]1` (stereo partly drawn) [Example 108, N-(3-hydroxypropyl)-1-{4-[(3R)-pyrrolidin-3-ylsulfamoyl]-3-sulfamoyl-2-(1H-tetrazol-5-yl)phenyl}piperidine-3-carboxamide], in series [1], the “MB9798 MITC95 P. aeruginosa uM Efflux WT” value amounted to 12.50 µM. The Efflux ratio in [1] was determined as 2.00. Further, the IC50 on NDM-1 amounted to 0.71 nM; at VIM-2, 1.77 nM; at IMP-1, 2.39 nM; on VIM-1, 0.5 nM. The “MB9799 MITC95 P. aeruginosa uM Efflux Mutant” value in series [2] worked out at 6.25 µM. Further, in [3], the “CLB30016 E. coli MITC95 NDM” value came to 6.25 µM. Also, the “CL5741 S. marcescens MITC95 IMP” value in series [4] was 12.50 µM. Moreover, the “IHMA599644 K. pneumoniae MITC95 VIM” value in [5] turned out to be 12.50 µM.
